# Results reported in ChEMBL document CHEMBL1201862, “PubChem BioAssay data set” (2004).
# Calls of active or inactive are those of the source.
# Key:
# [1] = target: T1, Mannose-6-phosphate isomerase (Homo sapiens, UniProt P34949); test: MPI inhibition at elevated mannose 6-phosphate – biochemical, fluorescence intensity, high mannose 6-phosphate, primary screen (AID 1220)
# T1 sequence (P34949 whole entry): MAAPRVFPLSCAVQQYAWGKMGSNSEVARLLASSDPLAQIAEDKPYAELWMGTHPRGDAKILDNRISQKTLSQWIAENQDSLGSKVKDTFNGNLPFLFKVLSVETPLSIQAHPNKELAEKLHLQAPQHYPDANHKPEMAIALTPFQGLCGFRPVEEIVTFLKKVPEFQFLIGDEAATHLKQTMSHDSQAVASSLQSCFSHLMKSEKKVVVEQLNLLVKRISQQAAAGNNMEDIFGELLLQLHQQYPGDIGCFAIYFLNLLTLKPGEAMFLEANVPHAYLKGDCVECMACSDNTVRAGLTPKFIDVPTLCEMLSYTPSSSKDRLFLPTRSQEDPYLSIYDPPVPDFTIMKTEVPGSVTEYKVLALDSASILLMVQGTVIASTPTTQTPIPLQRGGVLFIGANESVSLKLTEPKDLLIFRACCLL
# [2] = target: Prothrombin (Homo sapiens, UniProt P00734); test: Thrombin 1536 HTS Dose Response Confirmation. [Related pubchem assays: 1046 (Thrombin 1536 HTS; hits were confirmed in this assay)]; assay type: functional
# [3] = target: T2, Polyadenylate-binding protein 1 (Homo sapiens, UniProt P11940); test: MLLE domain peptide-binding blockers, IC50 – biochemical, fluorescence polarization, FITC-PAM2 peptide, dose response (AID 602259); assay type: functional; settings: read-out: IC50_Mean
# [4] = target: Glucose-6-phosphate 1-dehydrogenase (Homo sapiens, UniProt P11413); test: inhibition of Homo sapiens G6PD, dose series – biochemical, fluorescence, selectivity assay for P. falciparum G6PD inhibitor project, dose response (AID 504792); assay type: functional
# [5] = target: T2, Polyadenylate-binding protein 1; test: MLLE binding blockers, Cy5 peptide tracer – biochemical, fluorescence polarization, Cy5-PAM2 peptide, secondary, miRNA deadenylation inhibitor project, dose response (AID 602260); assay type: functional; settings: read-out: IC50_Mean
# [6] = viability loss in human Jurkat cells – cell-based, luminescence, cytotoxicity control for P. falciparum gametocyte viability project, dose response (AID 1117277); assay type: functional;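 note: potency reflects loss of cellular ATP meaning fewer viable cells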
# [7] = viability inhibitors of stage V gametocytes – luminescence, dose response (AID 1117278); assay type: functional, cell-based;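 note: gametocytes exposed to compound for 24 hours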
# [8] = A cytotoxicity screen of small molecule inhibitors of the PhoP region in Salmonella typhi identified in the primary screen. [Related pubchem assays: 1850, 1864, 1985 ]; assay type: functional
# [9] = HGIII-sPLA2 enzyme inhibition potency – biochemical, QFRET, IC50, dose response (AID 743457);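 note: green fluorescence rise as the enzyme cleaves BODIPY PC-A2 in liposomes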
# [10] = target: Disintegrin and metalloproteinase domain-containing protein 17 (Homo sapiens, UniProt P78536); test: exosite inhibitors of ADAM17, dose response, biochemical (AID 743260)
# [11] = target: T3, Fatty acid synthase (Homo sapiens, UniProt P49327); test: inhibition of human FAS-TE enzyme activity – biochemical, endpoint fluorescence intensity, uHTS hits, dose response (AID 624327); assay type: functional;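 note: fluorescence from hydrolysis of an O-methyl fluorescein acyl ester substrate by the enzyme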
# [12] = target: T3, Fatty acid synthase; test: inhibition of human FAS-TE enzyme activity – biochemical, kinetic fluorescence intensity, dose response (AID 624326); assay type: functional;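 note: rate of fluorescence rise from hydrolysis of a fluorogenic O-methyl fluorescein ester substrate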
# [13] = inhibition of ADAM10 peptide cleavage – biochemical, FRET peptide substrate, recombinant human ADAM10, selectivity assay for ADAM17 exosite inhibitor project, dose response (AID 743259);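 note: ADAM10 enzyme cleaving a FRET peptide substrate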
# [14] = target: T4, Calpain-2 catalytic subunit (Sus scrofa, UniProt P43367); test: m-calpain protease blockers, concentration series – biochemical, fluorogenic peptide substrate, dose response (AID 1420); assay type: functional
# T4 sequence (P43367 whole entry): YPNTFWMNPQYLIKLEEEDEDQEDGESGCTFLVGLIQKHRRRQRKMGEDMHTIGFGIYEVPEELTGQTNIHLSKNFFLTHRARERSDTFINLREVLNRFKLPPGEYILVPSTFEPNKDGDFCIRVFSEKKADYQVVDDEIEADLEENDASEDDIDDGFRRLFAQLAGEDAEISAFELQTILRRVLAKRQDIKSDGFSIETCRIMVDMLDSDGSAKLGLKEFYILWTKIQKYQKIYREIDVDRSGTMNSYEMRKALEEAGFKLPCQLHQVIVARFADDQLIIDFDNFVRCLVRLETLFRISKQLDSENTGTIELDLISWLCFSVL
# [15] = IGROV1 cell killing – plate reader, dry powder samples, PAX8 inhibitor project, dose response (AID 743043); assay type: functional, cell-based; settings: IGROV-1
# [16] = A2780 cell killing – plate reader, dry powder samples, cytotoxicity control, dose response (AID 743046); assay type: functional, cell-based
# [17] = OVCAR-3 cell viability loss – plate reader, dry powder samples, PAX8 inhibitor project, dose response (AID 743044); assay type: functional, cell-based
# [18] = target: Paired box protein Pax-8 (Homo sapiens, UniProt Q06710); test: PAX8 transcriptional activity inhibition in RMG-I – RMG-I cells, luciferase, cherry-pick, dose response (AID 687027); assay type: functional, cell-based;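 note: luciferase reporter driven by Pax8 target thyroperoxidase promoter measured by SteadyGlo luminescence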
# [19] = OVCAR8 cell viability loss – plate reader, dry powder samples, PAX8 project, dose response (AID 743197); assay type: functional, cell-based; settings: OVCAR-8
# [20] = T. cruzi growth inhibition in host cells, dose response, cell-based, plate reader, dry powder, set 2 (AID 652275); assay type: functional
# [21] = target: T5, Endoribonuclease toxin MazF (Escherichia coli K-12, UniProt P0AE70); test: activation of MazEF endoribonuclease cleavage – biochemical, fluorescence, single-stranded RNA substrate, uHTS hits, dose response (AID 588481); assay type: functional
# T5 sequence (P0AE70 whole entry): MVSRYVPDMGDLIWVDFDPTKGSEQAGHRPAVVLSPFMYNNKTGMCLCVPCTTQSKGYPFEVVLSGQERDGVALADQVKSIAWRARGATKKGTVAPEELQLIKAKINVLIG
# [22] = target: T5, Endoribonuclease toxin MazF; test: substrate-only fluorescence increase artefacts – biochemical, single-stranded RNase substrate, counter-screen for MazEF activator project, dose response (AID 588502); assay type: functional
# [23] = toxicity to human HepG2 hepatoma cells – cell-based, plate reader, dry powder samples, cytotoxicity control, dose response (AID 1159569); assay type: functional;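 note: inhibitor potency with signal falling toward the positive control level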
# [24] = P. falciparum Dd2 growth inhibitors, dose response, SYBR Green, cherry-picked samples (AID 1159567); assay type: functional, cell-based
# [25] = growth inhibition of yeast DHODH-expressing 3D7 parasites – SYBR Green, dry powder samples, dose response (AID 1159570); assay type: functional, cell-based;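 note: parasite growth measured after 72 hours of compound exposure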
# [26] = Dd2 malaria parasite growth inhibition potency – SYBR Green, dry powder samples, dose response (AID 1159566); assay type: functional, cell-based;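 note: potency for growth inhibition with lower SYBR green DNA signal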
# [27] = growth inhibition of PfATP4-mutant resistant parasites – NITD609-resistant line, SYBR Green, dry powder, dose response (AID 1159571); assay type: functional, cell-based;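 note: parasites synchronized at ring stage by sorbitol before testing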
# [28] = tested on: Streptococcus; test: GAS UMAA2166 growth inhibition – luminescence, BacTiterGlo, counter-screen for streptokinase expression inhibitor project, dose response (AID 1915); assay type: functional, organism-based;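 note: potency for reduction of bacterial viability or growth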
# [29] = DRD fibroblast viability loss – cell-based, non-viral oncogenic, luminescence, dose response (AID 1934); assay type: functional; settings: Homo sapiens
# [30] = tested on: BJ; test: BJ-TERT fibroblast viability loss – cell-based, RAS-independent, luminescence, dose response (AID 1933); assay type: functional; settings: Homo sapiens
# [31] = tested on: BJ; test: BJ-TERT-LT-ST fibroblast viability loss – cell-based, RAS-independent, luminescence, dose response (AID 1935); assay type: functional; settings: Homo sapiens;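 note: BJ fibroblasts immortalized with TERT plus LT and ST oncogenes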
# [32] = tested on: Streptococcus sp. 'group A'; test: Streptococcus pyogenes SK(-)GAS viability under kanamycin – luminescence, BacTiterGlo, confirmation, counter-screen for streptokinase expression inhibitor project, dose response (AID 1900); assay type: functional, organism-based
# [33] = tested on: BJ; test: cells; assay type: functional, cell-based; settings: Homo sapiens
# [34] = tested on: BJ; test: growth inhibition of engineered Ras-driven BJ cells – cell-based, alamar blue fluorescence, cherrypicked samples, dose response (AID 2631); assay type: functional; settings: Homo sapiens;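 note: confirmatory dose-response assay in RAS-dependent BJ fibroblasts engineered with TERT, LT and ST, with cytotoxicity read by fluorescence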
# [35] = luciferase reporter signal suppression in cells – H4 neuroglioma cells, luminescence, dose response (AID 1990); assay type: functional, cell-based
# [36] = Luminescence Cell-Based Dose Response HTS to Identify Inhibitors of 5'UTR Stem-Loop Driven Prion Protein mRNA Translation in H4 Neuroglioblastoma Cells. [Related pubchem assays: 1827 (Project Summary), 1813 (Primary HTS)]; assay type: functional
# [37] = alpha-synuclein stem-loop luciferase translation blockers – H4 neuroglioma cells, luminescence, confirmation (AID 1988); assay type: functional, cell-based
# Disintegrin and metalloproteinase domain-containing protein 17, sequence (P78536 whole entry, the tested form may be a part): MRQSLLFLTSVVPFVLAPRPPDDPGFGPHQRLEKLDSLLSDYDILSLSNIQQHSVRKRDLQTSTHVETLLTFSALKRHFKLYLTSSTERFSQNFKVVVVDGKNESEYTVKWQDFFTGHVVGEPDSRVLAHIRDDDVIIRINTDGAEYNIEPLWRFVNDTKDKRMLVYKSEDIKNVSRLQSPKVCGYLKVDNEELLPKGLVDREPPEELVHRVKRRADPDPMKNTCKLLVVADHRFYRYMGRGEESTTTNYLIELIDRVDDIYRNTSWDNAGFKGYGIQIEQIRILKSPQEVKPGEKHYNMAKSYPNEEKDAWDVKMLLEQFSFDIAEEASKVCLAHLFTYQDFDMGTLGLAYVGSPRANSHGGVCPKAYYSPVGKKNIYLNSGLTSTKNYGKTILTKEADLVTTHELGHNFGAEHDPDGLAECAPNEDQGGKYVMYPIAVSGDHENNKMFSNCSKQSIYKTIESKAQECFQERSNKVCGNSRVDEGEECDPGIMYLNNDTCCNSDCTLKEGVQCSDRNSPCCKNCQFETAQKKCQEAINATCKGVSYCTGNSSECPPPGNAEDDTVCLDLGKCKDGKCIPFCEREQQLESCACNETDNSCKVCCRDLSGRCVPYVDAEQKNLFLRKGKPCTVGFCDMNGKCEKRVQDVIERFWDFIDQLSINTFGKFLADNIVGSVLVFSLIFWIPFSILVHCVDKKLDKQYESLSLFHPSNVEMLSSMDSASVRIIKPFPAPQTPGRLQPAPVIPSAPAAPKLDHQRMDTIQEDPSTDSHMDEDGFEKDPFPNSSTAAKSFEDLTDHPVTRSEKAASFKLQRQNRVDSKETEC
# T2 sequence (P11940 whole entry, the tested form may be a part): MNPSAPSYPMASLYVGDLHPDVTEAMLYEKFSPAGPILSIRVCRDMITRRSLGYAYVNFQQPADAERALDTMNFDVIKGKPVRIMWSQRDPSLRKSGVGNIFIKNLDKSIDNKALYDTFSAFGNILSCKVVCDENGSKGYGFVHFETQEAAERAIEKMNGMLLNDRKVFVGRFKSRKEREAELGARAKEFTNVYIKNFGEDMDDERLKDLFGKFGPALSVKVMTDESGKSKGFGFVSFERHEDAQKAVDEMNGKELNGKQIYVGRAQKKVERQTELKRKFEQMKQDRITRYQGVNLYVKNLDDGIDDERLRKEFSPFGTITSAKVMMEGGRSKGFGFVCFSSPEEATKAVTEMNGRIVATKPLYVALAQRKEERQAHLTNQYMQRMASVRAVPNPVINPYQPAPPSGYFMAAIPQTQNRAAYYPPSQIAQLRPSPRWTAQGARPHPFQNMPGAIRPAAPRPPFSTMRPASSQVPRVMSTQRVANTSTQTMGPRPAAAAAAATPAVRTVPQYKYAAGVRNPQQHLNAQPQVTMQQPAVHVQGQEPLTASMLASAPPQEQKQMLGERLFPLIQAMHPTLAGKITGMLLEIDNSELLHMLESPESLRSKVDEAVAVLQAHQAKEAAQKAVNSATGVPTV
# T3 sequence (P49327 whole entry): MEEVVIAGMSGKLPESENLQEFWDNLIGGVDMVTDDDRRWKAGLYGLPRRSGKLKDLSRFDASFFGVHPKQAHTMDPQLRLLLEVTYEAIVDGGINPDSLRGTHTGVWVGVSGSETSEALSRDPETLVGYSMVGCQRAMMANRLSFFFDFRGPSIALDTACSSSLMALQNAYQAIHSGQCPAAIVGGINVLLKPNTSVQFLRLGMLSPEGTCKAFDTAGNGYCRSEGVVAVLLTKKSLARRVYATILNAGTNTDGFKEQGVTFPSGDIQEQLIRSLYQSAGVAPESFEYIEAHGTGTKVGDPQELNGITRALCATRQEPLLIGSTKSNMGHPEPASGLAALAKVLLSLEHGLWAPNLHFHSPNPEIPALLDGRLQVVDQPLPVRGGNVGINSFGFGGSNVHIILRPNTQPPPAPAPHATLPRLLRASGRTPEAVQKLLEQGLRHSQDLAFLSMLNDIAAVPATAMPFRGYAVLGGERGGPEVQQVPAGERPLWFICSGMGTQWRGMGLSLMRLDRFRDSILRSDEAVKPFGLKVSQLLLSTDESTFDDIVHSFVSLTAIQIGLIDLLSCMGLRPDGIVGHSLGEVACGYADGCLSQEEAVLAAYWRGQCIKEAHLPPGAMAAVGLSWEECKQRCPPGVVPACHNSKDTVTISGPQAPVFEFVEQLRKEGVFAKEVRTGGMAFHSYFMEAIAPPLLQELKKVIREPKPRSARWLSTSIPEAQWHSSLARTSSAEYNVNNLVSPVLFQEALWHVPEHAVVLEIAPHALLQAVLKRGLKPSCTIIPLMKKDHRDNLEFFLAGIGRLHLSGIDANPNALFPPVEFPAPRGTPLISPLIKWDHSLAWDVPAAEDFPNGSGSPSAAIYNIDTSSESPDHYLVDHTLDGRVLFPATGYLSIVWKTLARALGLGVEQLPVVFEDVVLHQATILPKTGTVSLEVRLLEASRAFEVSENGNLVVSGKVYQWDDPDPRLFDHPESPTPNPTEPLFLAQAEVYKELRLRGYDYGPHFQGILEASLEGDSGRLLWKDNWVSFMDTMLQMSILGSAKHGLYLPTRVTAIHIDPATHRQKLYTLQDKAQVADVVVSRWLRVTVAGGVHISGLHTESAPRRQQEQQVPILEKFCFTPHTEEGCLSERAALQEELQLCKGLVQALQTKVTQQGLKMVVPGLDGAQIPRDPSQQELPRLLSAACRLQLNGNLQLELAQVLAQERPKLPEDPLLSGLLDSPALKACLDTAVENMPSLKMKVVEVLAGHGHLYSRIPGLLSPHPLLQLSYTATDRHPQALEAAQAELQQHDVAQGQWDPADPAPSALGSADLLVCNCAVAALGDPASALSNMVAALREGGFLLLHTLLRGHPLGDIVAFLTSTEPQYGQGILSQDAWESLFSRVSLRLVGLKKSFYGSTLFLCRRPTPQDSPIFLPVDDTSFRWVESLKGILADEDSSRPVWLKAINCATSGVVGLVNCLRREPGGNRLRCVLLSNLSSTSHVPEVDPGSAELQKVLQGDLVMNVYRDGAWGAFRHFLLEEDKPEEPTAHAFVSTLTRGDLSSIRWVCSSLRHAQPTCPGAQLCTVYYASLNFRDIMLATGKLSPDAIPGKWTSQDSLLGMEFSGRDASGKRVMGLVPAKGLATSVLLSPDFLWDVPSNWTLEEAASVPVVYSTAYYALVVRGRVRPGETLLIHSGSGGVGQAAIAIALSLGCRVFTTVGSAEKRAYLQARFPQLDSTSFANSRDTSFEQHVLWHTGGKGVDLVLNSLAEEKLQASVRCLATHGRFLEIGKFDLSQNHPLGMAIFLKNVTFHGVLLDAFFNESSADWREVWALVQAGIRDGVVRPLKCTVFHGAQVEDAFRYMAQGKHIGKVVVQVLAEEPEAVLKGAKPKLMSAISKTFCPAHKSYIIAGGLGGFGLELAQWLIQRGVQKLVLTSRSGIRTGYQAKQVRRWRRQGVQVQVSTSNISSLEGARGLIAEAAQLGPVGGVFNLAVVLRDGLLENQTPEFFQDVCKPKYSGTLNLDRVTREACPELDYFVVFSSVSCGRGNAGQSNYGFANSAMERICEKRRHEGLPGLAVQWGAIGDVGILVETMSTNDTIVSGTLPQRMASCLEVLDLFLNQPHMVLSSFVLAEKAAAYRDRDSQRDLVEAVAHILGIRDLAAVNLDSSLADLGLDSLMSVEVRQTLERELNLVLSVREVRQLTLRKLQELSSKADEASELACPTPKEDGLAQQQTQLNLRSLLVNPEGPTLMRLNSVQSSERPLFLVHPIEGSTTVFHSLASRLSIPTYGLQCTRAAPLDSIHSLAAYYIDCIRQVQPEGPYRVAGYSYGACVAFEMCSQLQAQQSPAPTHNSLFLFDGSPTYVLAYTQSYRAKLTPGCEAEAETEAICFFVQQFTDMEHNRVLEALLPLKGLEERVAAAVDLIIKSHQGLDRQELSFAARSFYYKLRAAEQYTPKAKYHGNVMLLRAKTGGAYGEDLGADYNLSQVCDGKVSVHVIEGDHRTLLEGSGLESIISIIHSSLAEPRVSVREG
# Paired box protein Pax-8, sequence (Q06710 whole entry): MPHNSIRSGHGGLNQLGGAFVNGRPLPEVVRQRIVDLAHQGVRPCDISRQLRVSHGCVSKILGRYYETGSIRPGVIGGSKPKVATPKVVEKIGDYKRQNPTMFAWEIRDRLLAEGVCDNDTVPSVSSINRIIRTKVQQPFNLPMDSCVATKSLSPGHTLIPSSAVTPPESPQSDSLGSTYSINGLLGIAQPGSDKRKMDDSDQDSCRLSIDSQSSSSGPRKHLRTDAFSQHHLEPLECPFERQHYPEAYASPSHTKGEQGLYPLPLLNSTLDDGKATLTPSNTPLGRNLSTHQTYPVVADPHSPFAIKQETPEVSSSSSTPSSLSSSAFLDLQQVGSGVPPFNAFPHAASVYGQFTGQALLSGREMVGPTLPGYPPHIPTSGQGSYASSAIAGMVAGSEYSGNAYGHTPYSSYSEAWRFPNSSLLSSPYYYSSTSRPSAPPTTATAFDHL
# Glucose-6-phosphate 1-dehydrogenase, sequence (P11413 whole entry): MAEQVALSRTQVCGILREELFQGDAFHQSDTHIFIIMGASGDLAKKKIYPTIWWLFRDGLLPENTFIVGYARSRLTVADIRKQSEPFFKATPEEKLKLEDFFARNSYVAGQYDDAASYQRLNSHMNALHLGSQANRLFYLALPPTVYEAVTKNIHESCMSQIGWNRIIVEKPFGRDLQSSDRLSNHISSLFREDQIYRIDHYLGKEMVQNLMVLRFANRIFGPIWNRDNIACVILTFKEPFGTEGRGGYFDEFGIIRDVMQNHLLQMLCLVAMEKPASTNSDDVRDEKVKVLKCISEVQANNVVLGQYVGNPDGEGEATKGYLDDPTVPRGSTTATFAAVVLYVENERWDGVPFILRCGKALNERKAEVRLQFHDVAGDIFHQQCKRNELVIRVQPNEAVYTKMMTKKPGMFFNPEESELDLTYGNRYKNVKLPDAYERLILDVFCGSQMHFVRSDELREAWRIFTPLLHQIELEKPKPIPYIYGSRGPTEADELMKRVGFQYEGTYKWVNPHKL
compound,measurement,setting,value
CCOC(=O)C1CCN(Cc2c(O)ccc3ccccc23)CC1,IC50,[1],> 50 µM (not active)
Cn1nnc(CC[N+](C)(C)C)n1,IC50,[2],> 50 µM (not active)
Cc1ccc(-c2nc(N)s[n+]2-c2ccccc2)cc1,IC50,[1],4.91 µM (active)
same,IC50,[3],> 66 µM (inactive)
same,IC50,[4],27.2 µM (inactive)
same,IC50,[5],> 66 µM (inactive)
Cc1nc(-c2ccc(C(=O)N3CCOCC3)cc2)cs1,IC50,[6],> 83.3 µM (inactive)
same,IC50,[7],> 109 µM (inactive)
same,EC50,[8],> 50 µM (active)
Cc1cccc(NC(S)=NNC(=O)c2csc(C)c2)c1,IC50,[9],> 122 µM (inactive)
Cc1cccc(NS(=O)(=O)c2ccc3[nH]c(=O)cc(C(=O)OC(C)C(=O)Nc4ccc([N+](=O)[O-])cc4)c3c2)c1 (stereo not drawn),IC50,[10],> 69.5 µM (inactive)
same,IC50,[11],1.51 µM (active)
same,IC50,[12],3.66 µM (active)
Cc1cccc(NS(=O)(=O)c2ccc3nc(O)cc(C(=O)OC(C)C(=O)Nc4ccc([N+](=O)[O-])cc4)c3c2)c1 (stereo not drawn),IC50,[13],> 69.5 µM (inactive)
Cc1ccc(C(=O)N2C(CC(=O)Nc3ccc(Cl)cc3)C(=O)NC3CCCCC32)cc1 (stereo not drawn),IC50,[2],3.25 µM (active)
O=C(COc1ccc([N+](=O)[O-])cc1)Nc1ccc(CN2CCOCC2)cc1,IC50,[14],41.1 µM (not active)
Cc1cc(C)cc(-n2c(SC(C)C(=O)NCc3ccc4c(c3)OCO4)nc3ccccc3c2=O)c1 (stereo not drawn),IC50,[10],> 69.5 µM (inactive)
same,IC50,[13],18.3 µM (inactive)
COc1ccc(/C=C/c2c(-c3ccc(OC)cc3)oc3cccnc23)cc1,IC50,[6],> 83.3 µM (inactive)
same,IC50,[7],> 109 µM (inactive)
CCC(C)NS(=O)(=O)c1ccc(NS(C)(=O)=O)cc1 (stereo not drawn),IC50,[6],> 83.3 µM (inactive)
same,IC50,[7],> 109 µM (inactive)
Cc1ccccc1/N=C/c1cccc(O)c1O,IC50,[1],11.2 µM (active)
Cc1ccc(S(=O)(=O)Nc2ccc3c(c2)C(=O)N([C@H](C)CO)C[C@@H](C)[C@@H](CN(C)CC2CCCCC2)OCCCC[C@@H](C)O3)cc1,AC50,[15],38.8 µM (active)
same,AC50,[16],38.2 µM (active)
same,AC50,[17],26.5 µM (active)
same,AC50,[18],5.51 µM (active)
same,AC50,[19],40.4 µM (active)
C[C@@H]1CN([C@H](C)CO)C(=O)c2cc(NC(=O)Nc3ccc(C(F)(F)F)cc3)ccc2O[C@@H](C)CCCCO[C@@H]1CN(C)Cc1ccc(Cl)c(Cl)c1,AC50,[16],39.1 µM (active)
same,AC50,[17],20.7 µM (active)
same,AC50,[18],5 µM (active)
same,AC50,[19],29.1 µM (active)
CC(C)N1C[C@H](C)[C@@H](CN(C)Cc2ccc(Cl)c(Cl)c2)Oc2c(cccc2-c2nnc(-c3ccncc3)o2)C1=O,AC50,[20],0.0624 µM (active)
CC(C)N1C[C@@H](CN(C)Cc2ccc(Cl)c(Cl)c2)Oc2c(NC(=O)c3ccncc3)cccc2C1=O,AC50,[20],0.000485 µM (active)
COC[C@H](C)N1C[C@H](C)[C@@H](CN(C)Cc2ccc(Oc3ccccc3)cc2)Oc2c(NC(=O)c3ccncc3)cccc2C1=O,AC50,[20],0.00119 µM (active)
CN(C)Cc1c(C(=O)N/N=C/c2cccc(OCc3ccc(F)cc3)c2)nnn1-c1nonc1N,EC50,[21],45.2 µM (inactive)
same,EC50,[22],> 99 µM (inactive)
C[C@@H]1CN([C@H](C)CO)C(=O)c2ccccc2-c2ccccc2CO[C@@H]1CN(C)Cc1ccc(C(F)(F)F)cc1,AC50,[23],21.5 µM (active)
same,AC50,[24],2.16 µM (active)
same,AC50,[25],3.53 µM (active)
same,AC50,[26],1.93 µM (active)
same,AC50,[27],1.82 µM (active)
COc1ccc(NC(=O)N(C)C[C@H]2Oc3cc(C#CCC(C)C)ccc3S(=O)(=O)N([C@H](C)CO)C[C@H]2C)cc1,AC50,[23],38.3 µM (active)
same,AC50,[24],1.3 µM (active)
same,AC50,[25],1.5 µM (active)
same,AC50,[26],1.21 µM (active)
same,AC50,[27],1.7 µM (active)
Cc1cccc(NC2=NC(N)=NC(C)(C)N2)c1,EC50,[28],0.478 µM (active)
same,EC50,[29],1.48 µM (active)
same,EC50,[30],> 150 µM (not active)
same,EC50,[31],> 150 µM (not active)
same,EC50,[32],< 0.06 µM (active)
same,EC50,[33],1.26 µM (inconclusive)
same,EC50,[34],> 133 µM (inactive)
CC(C)[C@]12O[C@H]1[C@@H]1O[C@]13[C@]1(O[C@H]1C[C@H]1C4=C(CC[C@@]13C)C(=O)OC4)[C@@H]2O [TRIPTOLIDE],EC50,[35],< 0.1 µM (active)
same,EC50,[36],< 0.1 µM (active)
same,EC50,[37],< 0.1 µM (active)
same,EC50,[34],< 0.104 µM (active)
